In the assay the target is T1, human α7 nAChR (Homo sapiens, UniProt P36544).
T1 construct: host or cells: GH4C1 cells (pituitary tumor, immortalized cell line)
The experiment in a line: α7 nAChR FLIPR (Fluorometric Imaging Plate Reader) Ca2+ assay, agonist EC50. The assay is classed as cell-based. The note with it: for EC50: GH4C1 cells stably transfected with human α7 nAChR, Fluo-4 Ca2+ fluorescence, Examples 194 to 205 tested as the HCl salt, read-out: pEC50 value (negative logarithm of the agonist EC50) (converted). On the procedure: α7 nAChR FLIPR® (Fluorometric Imaging Plate Reader) Assay
Function of the heterologous expressed α7 nAChR was assessed by a FLIPR-Ca^2+ assay. Since nAChRs are non-selective cation channels with high permeability to Ca^2+, these studies were carried out by measuring changes of intracellular Ca^2+ concentration using the Ca^2+-chelating fluorescent dye Fluo-4 and FLIPR® (Fluorometric Imaging Plate Reader) technology.
GH4C1cells (pituitary tumor, immortalized cell line) stably transfected with human α7 nAChR (Biocat ID 96986), were thawed, suspended in growth medium (Ham's Nutrient Mixture F10—Ham's F10, Invitrogen 31550-023, 15% Horse Serum heat inactivated—Invitrogen 26050-047, 2.5% Foetal Bovine Serum—FBS, Gibco 10500-064, 200 μg/ml Hygromycin B—Invitrogen, 10687-010, 10 mg/L Phenol Red—Sigma, P 0290, 1 mM Glutamine—Invitrogen, 25030-024) and plated in 500 cm^2 Triple Flask.
Cells were then incubated at 30° C., 5% CO2 for 72 hours.
On the day of the experiment, cells were washed twice with Assay Buffer (AB) (145 mM NaCl, 5 mM KCl, 1 mM MgCl2, 2 mM CaCl2, 20 mM HEPES, 5.5 mM Glucose pH=7.3) containing 2.5 mM Probenecid. Changes in the intracellular Ca^2+ content of stably transfected cells were measured using the Ca^2+ chelating dye Fluo-4 (Tef Labs 0152) in conjunction with a FLIPR® (Molecular Devices). The cell permeant dye Fluo-4 was prepared to a concentration of 1 mM in 100% DMSO and 10% Pluronic acid. The dye was then diluted with AB to a final concentration of 2 μM and placed on the cells. After 45-60 minutes dye loading incubation at 37° C., the unincorporated dye was removed from the cells by washing (80 μL, 3 times) with AB, and a final volume of 30 μL/well of AB was left in each well.
Plates containing test compounds (dissolved in 100% DMSO at 2 mM and serially diluted with DMSO) were copied into “daughter” plates (1 μL/well dispensation). Just prior to starting the assay, the “daughter” plate was diluted with 50 μL/well of AB.
The plates were then placed in the FLIPR®, and cell fluorescence was determined before drug addition (30 seconds) and monitored (excitation 488 nm, emission 510-580 nm) immediately following exposure to compounds. Maximum fluorescence values were recorded and fitted for agonist EC50 calculations.
The results are expressed as pEC50 values. A pEC50 is the negative logarithm of the agonist EC50 calculation as determined in the α7 nAChR FLIPR® assay. […] Variations in pEC50 may arise between tests.

28 molecules from patent publication US20090105217A1, “2-PHENYL-5-AMINO-1,3,4-OXADIAZOLES AND THEIR USE AS NICOTINIC ACETYLCHOLINE RECEPTOR LIGANDS” (priority 2007, published 2009) can be followed below.

Counter-ions that a name gives are not always drawn.

T1 sequence (P36544 23-502): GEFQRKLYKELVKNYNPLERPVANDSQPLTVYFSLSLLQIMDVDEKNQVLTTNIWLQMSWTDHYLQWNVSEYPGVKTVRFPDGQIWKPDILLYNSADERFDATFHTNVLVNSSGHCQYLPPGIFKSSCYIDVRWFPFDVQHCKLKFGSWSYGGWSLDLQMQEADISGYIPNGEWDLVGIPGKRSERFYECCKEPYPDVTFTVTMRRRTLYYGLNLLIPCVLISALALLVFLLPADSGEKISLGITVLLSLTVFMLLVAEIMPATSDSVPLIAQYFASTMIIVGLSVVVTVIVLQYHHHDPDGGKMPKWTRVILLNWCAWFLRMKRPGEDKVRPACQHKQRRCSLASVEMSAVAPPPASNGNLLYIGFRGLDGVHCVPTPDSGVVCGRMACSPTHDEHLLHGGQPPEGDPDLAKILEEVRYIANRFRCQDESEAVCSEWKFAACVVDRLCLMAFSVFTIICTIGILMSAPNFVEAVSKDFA

`CC(C)(C)C(=O)Nc1ccc(-c2nnc(NCCCN3CCCCC3)o2)cc1` [2,2-dimethyl-N-[4-(5-{[3-(1-piperidinyl)propyl]amino}-1,3,4-oxadiazol-2-yl)phenyl]propanamide]: the “activity in the alpha 7 assay” value (alpha 7 assay described in the Examples) is “not found to have activity”.

Consider `CCN(CC)CCCNc1nnc(-c2ccc(NC(=O)c3ccccc3F)cc2OC)o1` [Example 2, N-[4-(5-{[3-(Diethylamino)propyl]amino}-1,3,4-oxadiazol-2-yl)-3-(methyloxy)phenyl]-2-fluorobenzamidehydrochloride], for which the EC50 was at most 1000 nM.

`O=C(Nc1ccc(-c2nnc(NCCCN3CCCCC3)o2)cc1)c1cccs1` [Example 8, N-[4-(5-{[3-(1-Piperidinyl)propyl]amino}-1,3,4-oxadiazol-2-yl)phenyl]-2-thiophenecarboxamidehydrochloride]: the concentration giving a half-maximal response (EC50) was at most 1000 nM.

On to `O=C(Nc1ccc(-c2nnc(NCCCN3CCCCC3)o2)cc1)c1ccsc1` [Example 10, N-[4-(5-{[3-(1-Piperidinyl)propyl]amino}-1,3,4-oxadiazol-2-yl)phenyl]-3-thiophenecarboxamidehydrochloride], for which the half-maximal effective concentration (EC50) is at most 1000 nM.

Consider `O=C(Nc1ccc(-c2nnc(NCCCN3CCCCC3)o2)cc1)c1cccc(Cl)c1` [Example 12, 3-Chloro-N-[4-(5-{[3-(1-piperidinyl)propyl]amino}-1,3,4-oxadiazol-2-yl)phenyl]benzamidehydrochloride], for which the EC50 was at most 1000 nM.

As to `O=C(Nc1ccc(-c2nnc(NCCCN3CCCCC3)o2)cc1)c1cccnc1` [Example 13, N-[4-(5-{[3-(1-Piperidinyl)propyl]amino}-1,3,4-oxadiazol-2-yl)phenyl]-3-pyridinecarboxamidehydrochloride], the EC50 is at most 1000 nM.

With `O=C(Nc1ccc(-c2nnc(NCCCN3CCCCC3)o2)cc1)c1cccc(F)c1F` [Example 16, 2,3-Difluoro-N-[4-(5-{[3-(1-piperidinyl)propyl]amino}-1,3,4-oxadiazol-2-yl)phenyl]benzamidehydrochloride], the EC50 is at most 1000 nM.

For `O=C(Nc1ccc(-c2nnc(NCCCN3CCCCC3)o2)cc1)c1ccccn1` [Example 17, N-[4-(5-{[3-(1-Piperidinyl)propyl]amino}-1,3,4-oxadiazol-2-yl)phenyl]-2-pyridinecarboxamidehydrochloride], the half-maximal effective concentration (EC50) is at most 1000 nM.

Regarding `O=C(Nc1ccc(-c2nnc(NCCCN3CCCCC3)o2)cc1)c1ccc(Cl)cc1` [Example 18, 4-Chloro-N-[4-(5-{[3-(1-piperidinyl)propyl]amino}-1,3,4-oxadiazol-2-yl)phenyl]benzamidehydrochloride], the EC50 was at most 1000 nM.

As to `O=C(Nc1ccc(-c2nnc(NCCCCN3CCC(F)CC3)o2)c(F)c1)c1ccccc1F` [Example 26, 2-Fluoro-N-[3-fluoro-4-(5-{[4-(4-fluoro-1-piperidinyl)butyl]amino}-1,3,4-oxadiazol-2-yl)phenyl]benzamide], the concentration for a half-maximal effect (EC50) is at most 100 nM.

Take `COc1cc(NC(=O)C2CCCCC2)ccc1-c1nnc(NCCCN2CCCCC2)o1` [Example 28, N-[3-(methyloxy)-4-(5-{[3-(1-piperidinyl)propyl]amino}-1,3,4-oxadiazol-2-yl)phenyl]cyclohexanecarboxamide]: the EC50 is at most 1000 nM.

As for `COc1cc(NC(=O)c2ccccc2)ccc1-c1nnc(NCCCCN2CCCCC2)o1` [Example 32, N-[3-(methyloxy)-4-(5-{[4-(1-piperidinyl)butyl]amino}-1,3,4-oxadiazol-2-yl)phenyl]benzamide], the EC50 is at most 100 nM.

Turning to `O=C(Nc1ccc(-c2nnc(NCCCCN3CCCCC3)o2)c(F)c1)c1ccccc1F` [Example 46, 2-fluoro-N-[3-fluoro-4-(5-{[4-(1-piperidinyl)butyl]amino}-1,3,4-oxadiazol-2-yl)phenyl]benzamide], the EC50 is at most 100 nM.

For the molecule `O=C(Nc1ccc(-c2nnc(NCCCN3CCCC3)o2)c(F)c1)c1ccccc1F` [Example 47, 2-fluoro-N-[3-fluoro-4-(5-{[3-(1-pyrrolidinyl)propyl]amino}-1,3,4-oxadiazol-2-yl)phenyl]benzamide], the EC50 was at most 1000 nM.

With `O=C(Nc1ccc(-c2nnc(NCCCCN3CCCC3)o2)c(F)c1)c1ccccc1F` [Example 48, 2-fluoro-N-[3-fluoro-4-(5-{[4-(1-pyrrolidinyl)butyl]amino}-1,3,4-oxadiazol-2-yl)phenyl]benzamide], the EC50 is at most 100 nM.

As to `CCN(CC)CCCNc1nnc(-c2ccc(NC(=O)c3ccccc3F)cc2F)o1` [Example 50, N-[4-(5-{[3-(diethylamino)propyl]amino}-1,3,4-oxadiazol-2-yl)-3-fluorophenyl]-2-fluorobenzamide], the EC50 was at most 1000 nM.

Take `CCN(CC)CCCCNc1nnc(-c2ccc(NC(=O)c3ccccc3F)cc2F)o1` [Example 51, N-[4-(5-{[4-(diethylamino)butyl]amino}-1,3,4-oxadiazol-2-yl)-3-fluorophenyl]-2-fluorobenzamide]: the EC50 was at most 1000 nM.

As for `CCN(CC)CCCCNc1nnc(-c2ccc(NC(=O)c3ccccc3F)cc2OC)o1` [Example 52, N-[4-(5-{[4-(diethylamino)butyl]amino}-1,3,4-oxadiazol-2-yl)-3-(methyloxy)phenyl]-2-fluorobenzamide], the half-maximal effective concentration (EC50) is at most 100 nM.

On to `O=C(Nc1ccc(-c2nnc(NCCCN3CCCCC3)o2)c(F)c1)C1CCCCC1` [Example 53, N-[3-fluoro-4-(5-{[3-(1-piperidinyl)propyl]amino}-1,3,4-oxadiazol-2-yl)phenyl]cyclohexanecarboxamide], for which the EC50 is at most 1000 nM.

`O=C(Nc1ccc(-c2nnc(NCCCCN3CCCCC3)o2)c(F)c1)C1CCCCC1` [Example 54, N-[3-fluoro-4-(5-{[4-(1-piperidinyl)butyl]amino}-1,3,4-oxadiazol-2-yl)phenyl]cyclohexanecarboxamide]: the EC50 was at most 100 nM.

In the case of `O=C(Nc1ccc(-c2nnc(NCCCCN3CCCC3)o2)c(F)c1)C1CCCCC1` [Example 55, N-[3-fluoro-4-(5-{[4-(1-pyrrolidinyl)butyl]amino}-1,3,4-oxadiazol-2-yl)phenyl]cyclohexanecarboxamide], the EC50 was at most 100 nM.

In the case of `O=C(Nc1ccc(-c2nnc(NCCCN3CCCC3)o2)c(F)c1)C1CCCCC1` [Example 56, N-[3-fluoro-4-(5-{[3-(1-pyrrolidinyl)propyl]amino}-1,3,4-oxadiazol-2-yl)phenyl]cyclohexanecarboxamide], the EC50 was at most 1000 nM.

On to `O=C(Nc1ccc(-c2nnc(NCCCCN3CCOCC3)o2)c(F)c1)C1CCCCC1` [Example 58, N-[3-fluoro-4-(5-{[4-(4-morpholinyl)butyl]amino}-1,3,4-oxadiazol-2-yl)phenyl]cyclohexanecarboxamide], for which the EC50 is at most 1000 nM.

Take `CCN(CC)CCCNc1nnc(-c2ccc(NC(=O)C3CCCCC3)cc2F)o1` [Example 59, N-[4-(5-{[3-(diethylamino)propyl]amino}-1,3,4-oxadiazol-2-yl)-3-fluorophenyl]cyclohexanecarboxamide]: the EC50 is at most 1000 nM.

On to `CCN(CC)CCCCNc1nnc(-c2ccc(NC(=O)C3CCCCC3)cc2F)o1` [Example 60, N-[4-(5-{[4-(diethylamino)butyl]amino}-1,3,4-oxadiazol-2-yl)-3-fluorophenyl]cyclohexanecarboxamide], for which the EC50 was at most 1000 nM.

Regarding `O=C(Nc1ccc(-c2nnc(NCCCN3CCCCC3)o2)c(C(F)(F)F)c1)C1CCCCC1` [Example 61, N-[4-(5-{[3-(1-piperidinyl)propyl]amino}-1,3,4-oxadiazol-2-yl)-3-(trifluoromethyl)phenyl]cyclohexanecarboxamide], the EC50 is at most 1000 nM.

As for `O=C(Nc1ccc(-c2nnc(NCCCCN3CCCCC3)o2)c(C(F)(F)F)c1)C1CCCCC1` [Example 62, N-[4-(5-{[4-(1-piperidinyl)butyl]amino}-1,3,4-oxadiazol-2-yl)-3-(trifluoromethyl)phenyl]cyclohexanecarboxamide], the EC50 was at most 100 nM.

On to `O=C(Nc1ccc(-c2nnc(NCCCN3CCCC3)o2)c(C(F)(F)F)c1)C1CCCCC1` [Example 63, N-[4-(5-{[3-(1-pyrrolidinyl)propyl]amino}-1,3,4-oxadiazol-2-yl)-3-(trifluoromethyl)phenyl]cyclohexanecarboxamide], for which the concentration for a half-maximal effect (EC50) is at most 1000 nM.

In general, EC50 refers to the concentration that produces a half-maximal response.
